Measured values reported in paper PMC10436550, “Subacute toxicity evaluations of LPM3480392 in rats, a full µ-opioid receptor biased agonist” (Frontiers in Pharmacology, 2023).
Like-named read-outs stand apart in the source and are kept apart here.

Assay: Toxicokinetics, plasma LPM3480392 after intravenous administration
Format: in vivo, Sprague Dawley (SD) rats
Details: Sprague-Dawley, rat, plasma; for concentration at 2 min: intravenous; for AUC(0-t): iv, read-out: AUC0–12h
Method: Blood samples from animals in LPM3480392 groups were collected at predose and 2 min, 30 min, 1 h and 4 h postdose of the 1st dosing on Days 1 and 28; at 2 min and 4 h postdose of the 2nd dosing on Days 1 and 28; at 2 min, 1 h and 4 h postdose the 3rd dosing on Days 1 and 28. Animals in control group were sampled at predose and 2 min postdose of the 1st dosing on Days 1 and 28. Approximately 0.36 mL of blood was collected from the jugular vein of surviving TK animals at each time point. Whole blood samples were anticoagulated with EDTA-K2 and centrifuged at 2°C–8°C and 1800 × g for 10 min. The harvested plasma was stored below −66°C before the analysis. LC-MS/MS methods (liquid chromatograph/mass spectrometer) were used to detect concentrations of LPM3480392 at each time point. TK parameters (AUC, Cmax, Tmax) were calculated by Phoenix WinNonlin (Pharsight) 8.2. The detection instruments include ultra-performance liquid chromatography (Waters, United States ACQUITY UPLC I -CLASS) and triple quadrupole tandem mass spectrometer (Waters, United States, Xevo TQ-S).

Fc1ccc([C@]2(CCNCc3cccc(Cl)c3)CCO[C@]3(CCOC3)C2)nc1 [LPM3480392]
concentration at 2 min (female, 1.2 mg/kg/day, 1.2 mg/kg/day iv, 1st dosing day, F, read-out: C2min (The 2nd dosing)): 169 ± 26.2 ng/mL
concentration at 2 min (female, 1.2 mg/kg/day, 1.2 mg/kg/day iv, 1st dosing day, F, read-out: C2min (The 3rd dosing)): 157 ± 25.5 ng/mL
concentration at 2 min (female, 1.2 mg/kg/day, 1.2 mg/kg/day iv, 28th dosing day, F, read-out: C2min (The 1st dosing)): 187 ± 20 ng/mL
concentration at 2 min (female, 1.2 mg/kg/day, 1.2 mg/kg/day iv, 28th dosing day, F, read-out: C2min (The 2nd dosing)): 167 ± 14.1 ng/mL
concentration at 2 min (female, 1.2 mg/kg/day, 1.2 mg/kg/day iv, 28th dosing day, F, read-out: C2min (The 3rd dosing)): 166 ± 16.1 ng/mL
concentration at 2 min (female, 2.4 mg/kg/day, 2.4 mg/kg/day iv, 1st dosing day, F, read-out: C2min (The 1st dosing)): 331 ± 25.1 ng/mL
concentration at 2 min (female, 2.4 mg/kg/day, 2.4 mg/kg/day iv, 1st dosing day, F, read-out: C2min (The 2nd dosing)): 292 ± 33.6 ng/mL
concentration at 2 min (female, 2.4 mg/kg/day, 2.4 mg/kg/day iv, 1st dosing day, F, read-out: C2min (The 3rd dosing)): 234 ± 52.1 ng/mL
concentration at 2 min (female, 2.4 mg/kg/day, 2.4 mg/kg/day iv, 28th dosing day, F, read-out: C2min (The 1st dosing)): 356 ± 81.9 ng/mL
concentration at 2 min (female, 2.4 mg/kg/day, 2.4 mg/kg/day iv, 28th dosing day, F, read-out: C2min (The 2nd dosing)): 387 ± 54.9 ng/mL
concentration at 2 min (female, 2.4 mg/kg/day, 2.4 mg/kg/day iv, 28th dosing day, F, read-out: C2min (The 3rd dosing)): 323 ± 20.7 ng/mL
AUC(0-t) (female, 0.6 mg/kg/day, 0.6 mg/kg/day iv, 1st dosing day, F): 319 ± 56 ng·h/mL
AUC(0-t) (female, 0.6 mg/kg/day, 0.6 mg/kg/day iv, 28th dosing day, F): 331 ± 48.3 ng·h/mL
AUC(0-t) (female, 1.2 mg/kg/day, 1.2 mg/kg/day iv, 1st dosing day, F): 719 ± 122 ng·h/mL
AUC(0-t) (female, 1.2 mg/kg/day, 1.2 mg/kg/day iv, 28th dosing day, F): 735 ± 63.4 ng·h/mL
AUC(0-t) (female, 2.4 mg/kg/day, 2.4 mg/kg/day iv, 1st dosing day, F): 1310 ± 57.9 ng·h/mL
AUC(0-t) (female, 2.4 mg/kg/day, 2.4 mg/kg/day iv, 28th dosing day, F): 1580 ± 129 ng·h/mL
concentration at 2 min (male, 0.6 mg/kg/day, 0.6 mg/kg/day iv, 1st dosing day, M, read-out: C2min (The 1st dosing)): 98.1 ± 21.3 ng/mL
concentration at 2 min (male, 0.6 mg/kg/day, 0.6 mg/kg/day iv, 1st dosing day, M, read-out: C2min (The 2nd dosing)): 70.5 ± 14.7 ng/mL
concentration at 2 min (male, 0.6 mg/kg/day, 0.6 mg/kg/day iv, 1st dosing day, M, read-out: C2min (The 3rd dosing)): 64.7 ± 10.8 ng/mL
concentration at 2 min (male, 0.6 mg/kg/day, 0.6 mg/kg/day iv, 28th dosing day, M, read-out: C2min (The 1st dosing)): 84.3 ± 20.2 ng/mL
concentration at 2 min (male, 0.6 mg/kg/day, 0.6 mg/kg/day iv, 28th dosing day, M, read-out: C2min (The 2nd dosing)): 77.9 ± 8.2 ng/mL
concentration at 2 min (male, 0.6 mg/kg/day, 0.6 mg/kg/day iv, 28th dosing day, M, read-out: C2min (The 3rd dosing)): 79.4 ± 7.61 ng/mL
concentration at 2 min (male, 1.2 mg/kg/day, 1.2 mg/kg/day iv, 1st dosing day, M, read-out: C2min (The 1st dosing)): 170 ± 10.7 ng/mL
concentration at 2 min (male, 1.2 mg/kg/day, 1.2 mg/kg/day iv, 1st dosing day, M, read-out: C2min (The 2nd dosing)): 142 ± 28.9 ng/mL
concentration at 2 min (male, 1.2 mg/kg/day, 1.2 mg/kg/day iv, 1st dosing day, M, read-out: C2min (The 3rd dosing)): 139 ± 29.2 ng/mL
concentration at 2 min (male, 1.2 mg/kg/day, 1.2 mg/kg/day iv, 28th dosing day, M, read-out: C2min (The 1st dosing)): 171 ± 26.2 ng/mL
concentration at 2 min (male, 1.2 mg/kg/day, 1.2 mg/kg/day iv, 28th dosing day, M, read-out: C2min (The 2nd dosing)): 113 ± 9.1 ng/mL
concentration at 2 min (male, 1.2 mg/kg/day, 1.2 mg/kg/day iv, 28th dosing day, M, read-out: C2min (The 3rd dosing)): 131 ± 18.7 ng/mL
concentration at 2 min (male, 2.4 mg/kg/day, 2.4 mg/kg/day iv, 1st dosing day, M, read-out: C2min (The 1st dosing)): 328 ± 33.8 ng/mL
concentration at 2 min (male, 2.4 mg/kg/day, 2.4 mg/kg/day iv, 1st dosing day, M, read-out: C2min (The 2nd dosing)): 289 ± 10.5 ng/mL
concentration at 2 min (male, 2.4 mg/kg/day, 2.4 mg/kg/day iv, 1st dosing day, M, read-out: C2min (The 3rd dosing)): 225 ± 40.9 ng/mL
concentration at 2 min (male, 2.4 mg/kg/day, 2.4 mg/kg/day iv, 28th dosing day, M, read-out: C2min (The 1st dosing)): 346 ± 46 ng/mL
concentration at 2 min (male, 2.4 mg/kg/day, 2.4 mg/kg/day iv, 28th dosing day, M, read-out: C2min (The 2nd dosing)): 259 ± 68.3 ng/mL
concentration at 2 min (male, 2.4 mg/kg/day, 2.4 mg/kg/day iv, 28th dosing day, M, read-out: C2min (The 3rd dosing)): 317 ± 47.9 ng/mL
AUC(0-t) (male, 0.6 mg/kg/day, 0.6 mg/kg/day iv, 1st dosing day, M): 310 ± 35.6 ng·h/mL
AUC(0-t) (male, 0.6 mg/kg/day, 0.6 mg/kg/day iv, 28th dosing day, M): 366 ± 14.7 ng·h/mL
AUC(0-t) (male, 1.2 mg/kg/day, 1.2 mg/kg/day iv, 1st dosing day, M): 607 ± 83.4 ng·h/mL
AUC(0-t) (male, 1.2 mg/kg/day, 1.2 mg/kg/day iv, 28th dosing day, M): 625 ± 28.9 ng·h/mL
AUC(0-t) (male, 2.4 mg/kg/day, 2.4 mg/kg/day iv, 1st dosing day, M): 1190 ± 87.1 ng·h/mL
AUC(0-t) (male, 2.4 mg/kg/day, 2.4 mg/kg/day iv, 28th dosing day, M): 1400 ± 168 ng·h/mL
